Data on four compounds can be found in PubChem BioAssay (NCI).

Structures are written as SMILES.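 Growth conditions: 96-well plates. Treatment: test compound, 48 hours, 5 concentrations. Analysis: linear interpolation between bracketing concentrations; unreached endpoints set to highest concentration. The concentration for full growth arrest is given as TGI.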 Where a SMILES comes first, the peptide text is derived from it. The star is where a group is joined. Boc = CC(C)(C)OC(=O)*; OSu = O=C1CCC(=O)N1O*

The test system of one experiment is UACC-257 melanoma. The experiment can be described thus: growth of human tumour cells (NCI), 48 h.
`O=c1[nH]cnc2c(C3OC(CO)C(O)C3O)c[nH]c12` (configuration not stated) returned a TGI of over 100 µM.

Regarding `CC(C)=CCN1CC(C)C(=O)Nc2cc(Cl)ccc21` (configuration not stated), the TGI came to 36 µM.

The compound `CC(C)(C)OC(=O)NC(Cc1ccc(O)cc1)C(=O)NC(CCCCN)C(=O)NC(Cc1ccc(O)cc1)C(=O)NC(CCCCN)C(=O)ON1C(=O)CCC1=O` (configuration not stated) (Boc-YKYK-OSu; configuration not given here) had a TGI of over 100 µM.

As to `[N-]=[N+]=Nc1c(Cl)c(=O)n(-c2ccccc2)c2ccccc12`, the TGI worked out at 47.1 µM.

Another experiment relates to UO-31 renal. The experiment can be described thus: growth of human tumour cells (NCI), 48 h.
As to `O=c1[nH]cnc2c(C3OC(CO)C(O)C3O)c[nH]c12` (configuration not stated), the TGI was over 100 µM.

The compound `CC(C)=CCN1CC(C)C(=O)Nc2cc(Cl)ccc21` (configuration not stated) came in with a TGI of over 100 µM.

In the case of `CC(C)(C)OC(=O)NC(Cc1ccc(O)cc1)C(=O)NC(CCCCN)C(=O)NC(Cc1ccc(O)cc1)C(=O)NC(CCCCN)C(=O)ON1C(=O)CCC1=O` (configuration not stated) (Boc-YKYK-OSu; configuration not given here), the TGI was over 100 µM.

Consider `[N-]=[N+]=Nc1c(Cl)c(=O)n(-c2ccccc2)c2ccccc12`, for which the TGI is 52.6 µM.

The test system of a further experiment is DU-145 prostate. The experiment can be described thus: growth of human tumour cells (NCI), 48 h.
For `O=c1[nH]cnc2c(C3OC(CO)C(O)C3O)c[nH]c12` (configuration not stated), the TGI was over 100 µM.

Consider `CC(C)=CCN1CC(C)C(=O)Nc2cc(Cl)ccc21` (configuration not stated), for which the TGI is over 100 µM.

The compound `[N-]=[N+]=Nc1c(Cl)c(=O)n(-c2ccccc2)c2ccccc12` had a TGI of over 100 µM.

Another experiment concerns KM12 colon. As to the kind of experiment: growth of human tumour cells (NCI), 48 h.
The compound `O=c1[nH]cnc2c(C3OC(CO)C(O)C3O)c[nH]c12` (configuration not stated) gave a TGI of over 100 µM.

With `CC(C)=CCN1CC(C)C(=O)Nc2cc(Cl)ccc21` (configuration not stated), the TGI worked out at 59.8 µM.

Compound `CC(C)(C)OC(=O)NC(Cc1ccc(O)cc1)C(=O)NC(CCCCN)C(=O)NC(Cc1ccc(O)cc1)C(=O)NC(CCCCN)C(=O)ON1C(=O)CCC1=O` (configuration not stated) (Boc-YKYK-OSu; configuration not given here) yielded a TGI of over 100 µM.

With `[N-]=[N+]=Nc1c(Cl)c(=O)n(-c2ccccc2)c2ccccc12`, the TGI was over 100 µM.

The next experiment deals with RPMI-8226 leukemia. The experiment can be described thus: growth of human tumour cells (NCI), 48 h.
On to `O=c1[nH]cnc2c(C3OC(CO)C(O)C3O)c[nH]c12` (configuration not stated), for which the TGI is over 100 µM.

As to `CC(C)=CCN1CC(C)C(=O)Nc2cc(Cl)ccc21` (configuration not stated), the TGI was over 100 µM.

In turn, `CC(C)(C)OC(=O)NC(Cc1ccc(O)cc1)C(=O)NC(CCCCN)C(=O)NC(Cc1ccc(O)cc1)C(=O)NC(CCCCN)C(=O)ON1C(=O)CCC1=O` (configuration not stated) (Boc-YKYK-OSu; configuration not given here) returned a TGI of over 100 µM.

`[N-]=[N+]=Nc1c(Cl)c(=O)n(-c2ccccc2)c2ccccc12` showed a TGI of over 100 µM.

A further experiment has as its system SK-OV-3 ovarian. The experiment can be described thus: growth of human tumour cells (NCI), 48 h.
Compound `O=c1[nH]cnc2c(C3OC(CO)C(O)C3O)c[nH]c12` (configuration not stated) displayed a TGI of over 100 µM.

In turn, `CC(C)=CCN1CC(C)C(=O)Nc2cc(Cl)ccc21` (configuration not stated) gave a TGI of 84.4 µM.

`[N-]=[N+]=Nc1c(Cl)c(=O)n(-c2ccccc2)c2ccccc12` had a TGI of over 100 µM.

In another experiment the test system is CCRF-CEM leukemia. As to the kind of experiment: growth of human tumour cells (NCI), 48 h.
`O=c1[nH]cnc2c(C3OC(CO)C(O)C3O)c[nH]c12` (configuration not stated) had a TGI of over 100 µM.

Regarding `CC(C)=CCN1CC(C)C(=O)Nc2cc(Cl)ccc21` (configuration not stated), the TGI is over 100 µM.

Regarding `CC(C)(C)OC(=O)NC(Cc1ccc(O)cc1)C(=O)NC(CCCCN)C(=O)NC(Cc1ccc(O)cc1)C(=O)NC(CCCCN)C(=O)ON1C(=O)CCC1=O` (configuration not stated) (Boc-YKYK-OSu; configuration not given here), the TGI is over 100 µM.

`[N-]=[N+]=Nc1c(Cl)c(=O)n(-c2ccccc2)c2ccccc12` gave a TGI of 56.6 µM.

In another experiment the test system is MCF7 breast. As to the kind of experiment: growth of human tumour cells (NCI), 48 h.
Regarding `O=c1[nH]cnc2c(C3OC(CO)C(O)C3O)c[nH]c12` (configuration not stated), the TGI is over 100 µM.

The compound `CC(C)=CCN1CC(C)C(=O)Nc2cc(Cl)ccc21` (configuration not stated) showed a TGI of 44.6 µM.

Take `CC(C)(C)OC(=O)NC(Cc1ccc(O)cc1)C(=O)NC(CCCCN)C(=O)NC(Cc1ccc(O)cc1)C(=O)NC(CCCCN)C(=O)ON1C(=O)CCC1=O` (configuration not stated) (Boc-YKYK-OSu; configuration not given here): the TGI is over 100 µM.

`[N-]=[N+]=Nc1c(Cl)c(=O)n(-c2ccccc2)c2ccccc12` yielded a TGI of 38.7 µM.

In another experiment the test system is MDA-MB-435. As to the kind of experiment: growth of human tumour cells (NCI), 48 h.
The compound `O=c1[nH]cnc2c(C3OC(CO)C(O)C3O)c[nH]c12` (configuration not stated) had a TGI of over 100 µM.

Compound `CC(C)=CCN1CC(C)C(=O)Nc2cc(Cl)ccc21` (configuration not stated) registered a TGI of 52.1 µM.

The compound `[N-]=[N+]=Nc1c(Cl)c(=O)n(-c2ccccc2)c2ccccc12` registered a TGI of 35 µM.

In the next experiment the test system is MOLT-4 leukemia. The experiment can be described thus: growth of human tumour cells (NCI), 48 h.
Take `O=c1[nH]cnc2c(C3OC(CO)C(O)C3O)c[nH]c12` (configuration not stated): the TGI is over 100 µM.

On to `CC(C)=CCN1CC(C)C(=O)Nc2cc(Cl)ccc21` (configuration not stated), for which the TGI is over 100 µM.

The compound `CC(C)(C)OC(=O)NC(Cc1ccc(O)cc1)C(=O)NC(CCCCN)C(=O)NC(Cc1ccc(O)cc1)C(=O)NC(CCCCN)C(=O)ON1C(=O)CCC1=O` (configuration not stated) (Boc-YKYK-OSu; configuration not given here) gave a TGI of over 100 µM.

For `[N-]=[N+]=Nc1c(Cl)c(=O)n(-c2ccccc2)c2ccccc12`, the TGI worked out at 38.4 µM.

The test system of another experiment is SNB-75 CNS. As to the kind of experiment: growth of human tumour cells (NCI), 48 h.
For the compound `O=c1[nH]cnc2c(C3OC(CO)C(O)C3O)c[nH]c12` (configuration not stated), the TGI was over 100 µM.

As to `CC(C)(C)OC(=O)NC(Cc1ccc(O)cc1)C(=O)NC(CCCCN)C(=O)NC(Cc1ccc(O)cc1)C(=O)NC(CCCCN)C(=O)ON1C(=O)CCC1=O` (configuration not stated) (Boc-YKYK-OSu; configuration not given here), the TGI was over 100 µM.

On to `[N-]=[N+]=Nc1c(Cl)c(=O)n(-c2ccccc2)c2ccccc12`, for which the TGI was determined as 50.8 µM.

The next experiment relates to NCI-H460 lung. As to the kind of experiment: growth of human tumour cells (NCI), 48 h.
Consider `O=c1[nH]cnc2c(C3OC(CO)C(O)C3O)c[nH]c12` (configuration not stated), for which the TGI is over 100 µM.

Consider `CC(C)=CCN1CC(C)C(=O)Nc2cc(Cl)ccc21` (configuration not stated), for which the TGI worked out at 40.7 µM.

For `CC(C)(C)OC(=O)NC(Cc1ccc(O)cc1)C(=O)NC(CCCCN)C(=O)NC(Cc1ccc(O)cc1)C(=O)NC(CCCCN)C(=O)ON1C(=O)CCC1=O` (configuration not stated) (Boc-YKYK-OSu; configuration not given here), the TGI was over 100 µM.

Take `[N-]=[N+]=Nc1c(Cl)c(=O)n(-c2ccccc2)c2ccccc12`: the TGI was over 100 µM.

For another experiment, the system named is 786-0 renal. The experiment can be described thus: growth of human tumour cells (NCI), 48 h.
Regarding `O=c1[nH]cnc2c(C3OC(CO)C(O)C3O)c[nH]c12` (configuration not stated), the TGI is over 100 µM.

Consider `CC(C)=CCN1CC(C)C(=O)Nc2cc(Cl)ccc21` (configuration not stated), for which the TGI was 39.2 µM.

`CC(C)(C)OC(=O)NC(Cc1ccc(O)cc1)C(=O)NC(CCCCN)C(=O)NC(Cc1ccc(O)cc1)C(=O)NC(CCCCN)C(=O)ON1C(=O)CCC1=O` (configuration not stated) (Boc-YKYK-OSu; configuration not given here): the TGI is over 100 µM.

As to `[N-]=[N+]=Nc1c(Cl)c(=O)n(-c2ccccc2)c2ccccc12`, the TGI is 38.6 µM.

In another experiment the test system is NCI-H522 lung. As to the kind of experiment: growth of human tumour cells (NCI), 48 h.
For the compound `O=c1[nH]cnc2c(C3OC(CO)C(O)C3O)c[nH]c12` (configuration not stated), the TGI was over 100 µM.

For `CC(C)=CCN1CC(C)C(=O)Nc2cc(Cl)ccc21` (configuration not stated), the TGI stood at 73.3 µM.

The subject of the next experiment is CAKI-1 renal. As to the kind of experiment: growth of human tumour cells (NCI), 48 h.
Regarding `O=c1[nH]cnc2c(C3OC(CO)C(O)C3O)c[nH]c12` (configuration not stated), the TGI is over 100 µM.

As to `CC(C)=CCN1CC(C)C(=O)Nc2cc(Cl)ccc21` (configuration not stated), the TGI amounted to 55.5 µM.
